{
  "source": "patent US20060069132A1",
  "about": "“Azolecarboxamide herbicides” (priority 2004, published 2006)",
  "key": {"rice": {"tested_on": "rice", "assay": "Test B flooded paddy test", "type": "in vivo, Oryza sativa", "details": "1000 g ai/ha, scale 0 to 100 (0 no effect, 100 complete control)", "method_in_brief": "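Postemergence plants were sprayed with formulated test chemicals at 2 to 18 cm height (1- to 4-leaf stage); paddy species were grown to the 2-leaf stage. After 13 to 15 days in a greenhouse, injury was rated visually against untreated controls on a 0–100 scale (0 = no effect, 100 = complete control).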"}, "large crabgrass": {"tested_on": "large crabgrass", "assay": "Test B pre-/postemergence herbicide test", "type": "in vivo, Digitaria sanguinalis", "details": "for Crabgrass, Large plant response rating: postemergence", "method_in_brief": "(§1)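 Response was scored visually 13 to 15 days after treatment against untreated greenhouse controls, 0 meaning no effect and 100 complete control. Formulations (solvent mixture plus surfactant) went onto soil after planting, onto foliage of 1- to 4-leaf plants, and onto 2-leaf plants in a flooded paddy set including rice and barnyardgrass.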"}, "pigweed": {"tested_on": "pigweed", "assay": "Test B pre-/postemergence herbicide test", "type": "in vivo, Amaranthus retroflexus", "details": "for Pigweed plant response rating: postemergence", "method_in_brief": "as §1"}, "barnyardgrass [1]": {"tested_on": "barnyardgrass", "assay": "Test B flooded paddy test", "type": "in vivo, Echinochloa crus-galli", "details": "1000 g ai/ha, scale 0 to 100 (0 no effect, 100 complete control)", "method_in_brief": "(§2)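 After treating 2-leaf paddy plants or 2–18 cm postemergence plants (1 to 4 leaves) with formulated chemical, researchers kept them in a greenhouse for 13–15 days. Effects were judged visually versus controls: 0 indicates none, 100 total control.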"}, "wheat": {"tested_on": "wheat", "assay": "Test B postemergence herbicide test", "type": "in vivo, Triticum aestivum", "set-up": "key to Wheat plant response rating: 0 = no effect, 100 = complete control", "details": "postemergence", "method_in_brief": "(§3)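 Treated at 2-leaf (paddy) or 1–4-leaf, 2–18 cm (postemergence); greenhouse 13–15 d; visual score vs control, 0 none to 100 complete control; dash = not tested.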"}, "ducksalad": {"tested_on": "ducksalad", "assay": "Test B flooded paddy test", "type": "in vivo, Heteranthera limosa", "details": "1000 g ai/ha, scale 0 to 100 (0 no effect, 100 complete control)", "method_in_brief": "as §2"}, "lambsquarters": {"tested_on": "lambsquarters", "assay": "Test B pre-/postemergence herbicide test", "type": "in vivo, Chenopodium album", "details": "for Lambsquarters plant response rating: postemergence", "method_in_brief": "as §1"}, "wild oat": {"tested_on": "wild oat", "assay": "Test B postemergence herbicide test", "type": "in vivo, Avena fatua", "details": "postemergence", "method_in_brief": "as §3"}, "giant foxtail": {"tested_on": "giant foxtail", "assay": "Test B pre-/postemergence herbicide test", "type": "in vivo, Setaria faberi", "details": "for Foxtail, Giant plant response rating: postemergence", "method_in_brief": "as §1"}, "velvetleaf": {"tested_on": "velvetleaf", "assay": "Test B pre-/postemergence herbicide test", "type": "in vivo, Abutilon theophrasti", "details": "for Velvetleaf plant response rating: postemergence", "method_in_brief": "as §1"}, "corn": {"tested_on": "corn", "assay": "Test B pre-/postemergence herbicide test", "type": "in vivo, Zea mays", "details": "for Corn plant response rating: postemergence", "method_in_brief": "as §1"}, "morningglory": {"tested_on": "morningglory", "assay": "Test B pre-/postemergence herbicide test", "type": "in vivo, Ipomoea coccinea", "details": "for Morningglory plant response rating: postemergence", "method_in_brief": "(§4)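 Flooded paddy rice and barnyardgrass were treated at the 2-leaf stage; upland plantings received compound either on sown seed or on 1- to 4-leaf seedlings. All were kept 13–15 days in a greenhouse and scored visually, 0–100, relative to untreated plants.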"}, "cocklebur": {"tested_on": "cocklebur", "assay": "Test B pre-/postemergence herbicide test", "type": "in vivo, Xanthium strumarium", "details": "for Cocklebur plant response rating: postemergence", "method_in_brief": "as §4"}, "Surinam grass": {"tested_on": "Surinam grass", "assay": "Test B pre-/postemergence herbicide test", "type": "in vivo, Urochloa decumbens", "details": "for Surinam Grass plant response rating: postemergence", "method_in_brief": "as §1"}, "barnyardgrass [2]": {"tested_on": "barnyardgrass", "assay": "Test B pre-/postemergence herbicide test", "type": "in vivo, Echinochloa crus-galli", "details": "for Barnyardgrass plant response rating: postemergence", "method_in_brief": "as §4"}, "[3]": {"details": "125 g ai/ha, 0 = no effect, 100 = complete control, preemergence"}, "[4]": {"details": "125 g ai/ha, visual rating, scale 0 (no effect) to 100 (complete control)"}, "[5]": {"details": "500 g ai/ha, visual rating, 0 = no effect, 100 = complete control, preemergence"}, "[6]": {"details": "500 g ai/ha, scale 0 to 100, 0 is no effect, 100 is complete control"}},
  "data": [
    {"smiles": "CCNC(=O)c1ccc(F)c(NC(=O)c2cc(C3(C)CC3)nn2CC)c1", "note": "[Compound 300]", "values": [
      {"measurement": "Rice plant response rating", "setting": "rice", "result": 90},
      {"measurement": "Crabgrass, Large plant response rating (0 to 100 scale)", "setting": "large crabgrass; [3]", "result": 100},
      {"measurement": "Crabgrass, Large plant response rating", "setting": "large crabgrass; [4]", "result": 10},
      {"measurement": "Plant response rating, Crabgrass, Large", "setting": "large crabgrass; [5]", "result": 100},
      {"measurement": "Crabgrass, Large plant response rating", "setting": "large crabgrass; [6]", "result": 30},
      {"measurement": "Pigweed plant response rating (0 to 100 scale)", "setting": "pigweed; [3]", "result": 100},
      {"measurement": "Pigweed plant response rating", "setting": "pigweed; [4]", "result": 80},
      {"measurement": "Plant response rating, Pigweed", "setting": "pigweed; [5]", "result": 100},
      {"measurement": "Pigweed plant response rating", "setting": "pigweed; [6]", "result": 90},
      {"measurement": "Barnyardgrass plant response rating", "setting": "barnyardgrass [1]", "result": 90},
      {"measurement": "Wheat plant response rating", "setting": "wheat; [4]", "result": 10},
      {"measurement": "Wheat plant response rating", "setting": "wheat; [6]", "result": 20},
      {"measurement": "Ducksalad plant response rating", "setting": "ducksalad", "result": 90},
      {"measurement": "Lambsquarters plant response rating (0 to 100 scale)", "setting": "lambsquarters; [3]", "result": 100},
      {"measurement": "Lambsquarters plant response rating", "setting": "lambsquarters; [4]", "result": 70},
      {"measurement": "Plant response rating, Lambsquarters", "setting": "lambsquarters; [5]", "result": 100},
      {"measurement": "Lambsquarters plant response rating", "setting": "lambsquarters; [6]", "result": 80},
      {"measurement": "Oat, Wild plant response rating", "setting": "wild oat; [4]", "result": 30},
      {"measurement": "Oat, Wild plant response rating", "setting": "wild oat; [6]", "result": 30},
      {"measurement": "Foxtail, Giant plant response rating (0 to 100 scale)", "setting": "giant foxtail; [3]", "result": 80},
      {"measurement": "Foxtail, Giant plant response rating", "setting": "giant foxtail; [4]", "result": 30},
      {"measurement": "Plant response rating, Foxtail, Giant", "setting": "giant foxtail; [5]", "result": 100},
      {"measurement": "Foxtail, Giant plant response rating", "setting": "giant foxtail; [6]", "result": 30},
      {"measurement": "Velvetleaf plant response rating", "setting": "velvetleaf; [4]", "result": 40},
      {"measurement": "Plant response rating, Velvetleaf", "setting": "velvetleaf; [5]", "result": 100},
      {"measurement": "Velvetleaf plant response rating", "setting": "velvetleaf; [6]", "result": 70},
      {"measurement": "Corn plant response rating (0 to 100 scale)", "setting": "corn; [3]", "result": 0},
      {"measurement": "Corn plant response rating", "setting": "corn; [4]", "result": 30},
      {"measurement": "Plant response rating, Corn", "setting": "corn; [5]", "result": 70},
      {"measurement": "Corn plant response rating", "setting": "corn; [6]", "result": 30},
      {"measurement": "Morningglory plant response rating (0 to 100 scale)", "setting": "morningglory; [3]", "result": 10},
      {"measurement": "Morningglory plant response rating", "setting": "morningglory; [4]", "result": 90},
      {"measurement": "Plant response rating, Morningglory", "setting": "morningglory; [5]", "result": 60},
      {"measurement": "Morningglory plant response rating", "setting": "morningglory; [6]", "result": 90},
      {"measurement": "Cocklebur plant response rating (0 to 100 scale)", "setting": "cocklebur; [3]", "result": 10},
      {"measurement": "Cocklebur plant response rating", "setting": "cocklebur; [4]", "result": 10},
      {"measurement": "Plant response rating, Cocklebur", "setting": "cocklebur; [5]", "result": 20},
      {"measurement": "Cocklebur plant response rating", "setting": "cocklebur; [6]", "result": 50},
      {"measurement": "Surinam Grass plant response rating (0 to 100 scale)", "setting": "Surinam grass; [3]", "result": 80},
      {"measurement": "Surinam Grass plant response rating", "setting": "Surinam grass; [4]", "result": 10},
      {"measurement": "Plant response rating, Surinam Grass", "setting": "Surinam grass; [5]", "result": 100},
      {"measurement": "Surinam Grass plant response rating", "setting": "Surinam grass; [6]", "result": 10},
      {"measurement": "Barnyardgrass plant response rating (0 to 100 scale)", "setting": "barnyardgrass [2]; [3]", "result": 70},
      {"measurement": "Barnyardgrass plant response rating", "setting": "barnyardgrass [2]; [4]", "result": 30},
      {"measurement": "Plant response rating, Barnyardgrass", "setting": "barnyardgrass [2]; [5]", "result": 90},
      {"measurement": "Barnyardgrass plant response rating", "setting": "barnyardgrass [2]; [6]", "result": 50}
    ]}
  ]
}
